According to patent US20070134185A1, “Use of dithiols in a hair-perming composition” (priority 2003, published 2007):

Tests used:
[1] = cited from earlier work
[2] = Permanent waving of hair locks with reducing lotion; conditions: reducing lotion 20.83 g Compound A1 per 100 g, pH = 7, 15 minutes on curled hair, fixing with hydrogen peroxide at 8 volumes pH=3
Procedure: A reducing lotion is prepared:
The above lotion is applied to locks of grey hair which is 90% white. Curls are produced using curlers. The lotion is allowed to act on the curled hair for 15 minutes. The hair is rinsed with water. A conventional fixing composition based on hydrogen peroxide (hydrogen peroxide at 8 volumes, pH=3), is applied. Another rinsing is carried out. The curlers are removed.

[3] = Oxidation dyeing of permanently waved hair; conditions: compared with identical permanent waving with thioglycolic acid instead of A1, at equivalent curliness

| Compound | solubility in water [1] | curliness [2] | colour after 7.44 CRESCENDO oxidation dye on permanently waved hair [3] |
| --- | --- | --- | --- |
| O=S(=O)(CCS)CCS [BMS, bis(2-mercaptoethyl)sulphone] | very sparingly soluble in water |  |  |
| CN(C(=O)CS)N(C)C(=O)CS [Compound A1] |  | Good curliness | closer to that obtained on non-permanently waved hair |
